Measured values from ChEMBL document CHEMBL1131656, “Diimidazo[1,2-c:4',5'-e]pyrimidines: N6-N1 conformationally restricted adenosines” (Bioorg Med Chem Lett, 1998).

Legend:
[1] = target: Adenosine receptors; A1 & A2a (Rattus norvegicus) (UniProt P25099+P30543); test: Ratio of Ki for A2A and A1 receptors; type: protein assay
[2] = target: Adenosine receptor A2a (Rattus norvegicus, UniProt P30543); test: Binding affinity against Adenosine A2a receptor from rat striata
[3] = target: T1, Adenosine receptor A1 (Rattus norvegicus, UniProt P25099); test: Binding affinity for rat brain Adenosine A1 receptor
T1 sequence (P25099 whole entry): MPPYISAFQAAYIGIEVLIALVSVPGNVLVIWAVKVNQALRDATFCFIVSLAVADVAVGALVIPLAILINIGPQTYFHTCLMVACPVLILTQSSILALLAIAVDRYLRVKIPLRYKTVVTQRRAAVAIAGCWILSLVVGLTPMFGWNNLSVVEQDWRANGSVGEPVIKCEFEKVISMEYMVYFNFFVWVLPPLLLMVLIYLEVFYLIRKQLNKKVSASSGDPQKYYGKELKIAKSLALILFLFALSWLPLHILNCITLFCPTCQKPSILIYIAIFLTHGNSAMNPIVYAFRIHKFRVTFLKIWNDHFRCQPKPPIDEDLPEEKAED

[4] = target: Adenosine receptor A2a (Rattus norvegicus) (UniProt P30543); test: Binding affinity against Adenosine A2a receptor from rat striata at a concentration of 10e-3 uM
Adenosine receptor A2a (Rattus norvegicus), sequence (P30543 whole entry): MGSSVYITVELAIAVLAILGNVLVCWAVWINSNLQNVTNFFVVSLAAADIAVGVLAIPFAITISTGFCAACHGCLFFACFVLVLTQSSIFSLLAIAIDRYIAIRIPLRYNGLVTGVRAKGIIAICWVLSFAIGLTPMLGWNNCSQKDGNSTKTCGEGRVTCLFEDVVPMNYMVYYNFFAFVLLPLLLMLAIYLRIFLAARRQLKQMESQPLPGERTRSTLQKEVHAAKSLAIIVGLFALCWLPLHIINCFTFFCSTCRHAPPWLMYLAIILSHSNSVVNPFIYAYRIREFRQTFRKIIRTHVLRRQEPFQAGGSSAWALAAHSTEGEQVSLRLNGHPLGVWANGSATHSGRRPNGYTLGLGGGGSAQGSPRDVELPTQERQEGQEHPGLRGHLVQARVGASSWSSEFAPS

Adenosine receptors; A1 & A2a (Rattus norvegicus), sequence (P30543 whole entry, looked up, one chain of several): as the sequence (P30543 whole entry) above
Adenosine receptor A2a, sequence (P30543 whole entry): as above

In the case of `CCCOC1=Nc2c(ncn2-c2ccccc2)C2=N[C@H](Cc3ccccc3)CN12`, the Ratio [1] is reported as 22 and the Ki [2] is reported as 72 µM.
`OC[C@@H]1OC(n2cnc3c2N=CN2C[C@@H](Cc4ccccc4)N=C32)[C@@H](O)[C@H]1O` (some centres undefined) gave a Ki [3] of 2.23 µM, a Ratio [1] of 6 and a Ki [2] of 13.5 µM.
For `CCCOC1=Nc2c(cnn2-c2ccccc2)C2=N[C@H](C)[C@@H](c3ccccc3)N12`, the Ratio [1] was 1.5 and the Ki [2] was 11 µM.
Work on `CCCOC1=Nc2c(cnn2-c2ccccc2)C2=N[C@@H](C)[C@H](c3ccccc3)N12` yielded a Ratio [1] of 1.4 and a Ki [2] of 45 µM.
`C[C@H]1N=C2c3ncn(C4O[C@@H](CO)[C@H](O)[C@@H]4O)c3N=CN2[C@@H]1c1ccccc1` (some centres undefined) showed a Ki [3] of 12.6 µM, a Ratio [1] of 4.4 and a Ki [2] of 55.5 µM.
In the case of `C[C@@H]1N=C2c3ncn(C4O[C@@H](CO)[C@H](O)[C@@H]4O)c3N=CN2[C@H]1c1ccccc1` (some centres undefined), the inhibition [4] is reported as 45%, the Ki [3] is reported as 11.2 µM and the Ratio [1] is reported as 70.
With `OC[C@@H]1OC(n2cnc3c2N=CN2C[C@H](Cc4ccccc4)N=C32)[C@@H](O)[C@H]1O` (some centres undefined) the Ki [3] was 2.99 µM, the Ratio [1] was 19 and the Ki [2] was 57.1 µM.
In the case of `CCCOC1=Nc2c(cnn2-c2ccccc2)C2=N[C@H](Cc3ccccc3)CN12`, the Ratio [1] is reported as over 100 and the Ki [2] is reported as over 100 µM.
`CCCOC1=Nc2c(ncn2-c2ccccc2)C2=N[C@@H](Cc3ccccc3)CN12` showed a Ratio [1] of 0.18.
`OC[C@@H]1OC(n2cnc3c2N=CN2C[C@H](c4ccccc4)N=C32)[C@@H](O)[C@H]1O` (some centres undefined) showed a Ki [3] of 4.54 µM, a Ratio [1] of 42 and a Ki [2] of 189 µM.
With `OC[C@@H]1OC(n2cnc3c2N=CN2C[C@@H](c4ccccc4)N=C32)[C@@H](O)[C@H]1O` (some centres undefined) the Ki [3] was 3.82 µM, the Ratio [1] was 4.6 and the Ki [2] was 17.5 µM.
With `CCCOC1=Nc2c(cnn2-c2ccccc2)C2=N[C@@H](Cc3ccccc3)CN12` the Ratio [1] was 0.35 and the Ki [2] was 3.3 µM.
